Legend:
[1] = system: CD47 on primary AML blasts; assay: CD47 cell-surface expression, primary AML blasts; type: cell-based; conditions: two human patients; FIG. 3C
Procedure: (§1) In another set of assays, the effect of azacitidine or venetoclax on the expression levels of CD47 on the cell surfaces of MV4-11 and primary AML cells from two different human patients was tested.

[2] = system: OCI-AML3 tumor xenografts; assay: Subcutaneous OCI-AML3 leukemia xenograft model; type: in vivo, mice; conditions: day 20, Drug A 10 mg/kg IP Q3D 6 doses, aza 5 mg/kg IP Q3D 5 doses
Procedure: (§2) Tumors were monitored until average size of all tumors reached 105 mm^3 for HL60, 75 mm^3 for MV4-11 and 112 mm^3 for OCI-AML3. […] Mice in HL60 and OCI-AML3 tumor models were dosed intraperitoneally (IP) five times, three days apart at 5 mg/kg for azacitidine, and six times, three days apart at 10 mg/kg for Drug A. MV4-11 tumor bearing mice were dosed IP three times per week at 5 mg/kg for azacitidine and 10 mg/kg for Drug A. Tumors were measured in two dimensions with calipers and tumor volume was calculated as: length×width×width×0.5, where length was the larger of the two measurements. Animals were sacrificed when tumor reached a volume of ˜2000 mm^3.
(§3) In this Example, the anti-tumor activity of Drug A in combination with azacitidine (aza) was assessed mice bearing either HL60, OCI-AML3 and MV4-11 human leukemia tumor xenografts. (See Example 1 for experimental details.) HL60 is a TP53null FLT3 wt cell line; OCI-AML3 is TP53 wt and FLT3 wt; and MV4-11 is TP53 wt and FLT3-ITD.
(§4) Mice bearing HL60 xenografted tumors were randomized to 4 groups of 4-5 mice each. One group of mice was given (a) Drug A at 10 mg/kg IP (Q3D, 6 doses total), (b) aza at 5 mg/kg IP (Q3D, 5 doses total), (c) both Drug A and aza (at the doses and administration schedule for each single agent), or (d) vehicle. Mice bearing OCI-AML3 xenografts were similarly randomized and treated. […]

HL60 cells = assay: In vitro phagocytosis assay, HL60 cells by human monocyte-derived macrophages; type: cell-based; conditions: single agent, compared to untreated cells; FIG. 1A
Procedure: CD14^+ monocytes were purified by negative selection using the Classical Monocytes Isolation Kit, human (Miltenyi Biotec) and LS columns (Miltenyi Biotec) according to the manufacturer's protocol. CD14^+ monocytes were seeded into 150 mm tissue culture dishes (Corning) at 6 million cells per dish in 25 mL medium comprised of RPMI complete media, supplemented with 50 ng/mL M-CSF (Miltenyi Biotec), 10% FBS (Thermo Fisher Scientific), 1% penicillin/streptomycin, and 1% GlutaMAX. Cells were cultured for seven to eleven days.
Target cells, HL60 and OCI-AML3 cells, were washed once in PBS and labeled with the Celltrace CFSE Cell Proliferation kit (Thermo Fisher Scientific) in suspension with 300 nM CFSE (carboxyfluorescein succinimidyl ester) according to the manufacturer's instructions and resuspended in RPMI complete media. Target cells were incubated overnight with two-fold serial dilutions of azacitidine between 39 nM to 2.5 μM in RPMI complete media. Prior to incubation with macrophages, cells were resuspended in RPMI. Macrophages were detached from culture plates by washing once with PBS and incubation in TrypLE Select for 20 minutes at 37° C. […]
Briefly HL60 cells and OCI-AML3 cells (i.e., “target cells”) were labeled with CFSE (carboxyfluorescein succinimidyl ester) and treated with azacitidine (aza) for 48 hours. […] Macrophage cells were pelleted, stained, and analyzed via flow cytometry. […]

[3] = system: CD47 on the cell surfaces of MV4-11; assay: CD47 cell-surface expression, MV4-11; type: cell-based, human; conditions: FIG. 3C
Procedure: as §1

[4] = system: HL60-LUC2 acute myeloid leukemic model; assay: Disseminated HL60-LUC2 systemic leukemic model, Drug A and azacitidine; type: in vivo, mice
Procedure: After transplantation of HL60-LUC2 cells by intravenous tail injection into immunodeficient NSG mice (7.5E6 cells/animal), engraftment was confirmed by bioluminescence imaging and mice were randomized into 4 groups (10 mice/group). Treatment was performed as shown Table A below.
Treatment was continued until mice received 14 doses of single agent Drug A, single agent azacitidine, or Drug A in combination with azacitidine.

[5] = system: calreticulin on the surface of MV4-11 cells; assay: Analysis of calreticulin cell-surface expression, MV4-11; type: cell-based, human; conditions: for expression of the pro-phagocytic signal calreticulin in the MV411 AML cell line: FIG. 3B
Procedure: (§5) To detect changes in calreticulin expression levels in human acute myeloid leukemia cell lines HL60, OCI-AML3 and MV4-11, cells were incubated with either 2.5 pM or 75 nM of azacitidine (Selleckchem) in complete growth medium (RPMI1640, 10% FBS) in a 37° C. 5% CO2 incubator for 72 hrs. Cells grown in complete growth medium was used as a control for calreticulin baseline expression. After incubation, cells were harvested and washed once in staining buffer (PBS, 2% FBS), stained in PBS with fixable live/dead stain (Invitrogen) for 1 hour at 4° C., washed once in staining buffer and incubated with 500 ng/mL of calreticulin-AF647 (clone 1G6A7, Novus). After a 1 hour incubation at 4° C., cells were washed twice in staining buffer and fixed in 0.5% paraformaldehyde. Cells were analyzed on an Attune (ThermoScientific), and subsequent data analysis using Flowjo 10.6.
(§6) HL60 is a TP53null FLT3 wt cell line; OCI-AML3 is TP53 wt and FLT3 wt; and MV4-11 is TP53 wt and FLT3-ITD.
(§7) The effect of azacitidine or venetoclax on the expression levels of calreticulin on the cell surfaces of MV4-11 and primary AML cells from two different human patients was also tested.

[6] = system: calreticulin on primary AML blasts; assay: Analysis of calreticulin cell-surface expression, primary AML blasts; type: cell-based; conditions: two human patients; FIG. 3B
Procedure: as §7

[7] = system: calreticulin on the surface of OCI-AML3 cells; assay: Analysis of calreticulin cell-surface expression, OCI-AML3; type: cell-based, human; conditions: with increased concentrations of azacitidine, 72 hrs; FIG. 3A
Procedure: as §5, §6

HL60 tumor xenografts = assay: Subcutaneous HL60 leukemia xenograft model; type: in vivo, mice
Procedure: as §2, §3, §4

[8] = Human PBMC viability assay; type: cell-based; conditions: CD11c+ dendritic cells in human PBMC cultures, 1.25 pM azacitidine alone, FIG. 2, read-out: reduction of the viability of CD11c^+ dendritic cells
Procedure: PBMCs were counted and plated in complete RPMI. Drug A alone or in combination azacitidine was added to the PBMCs. Following 72-hour or five day incubation at 37° C., cells were stained with a fixable viability dye followed by staining with cell surface markers: CD3, CD19, CD14, CD56, CD16, CD11c, and HLADR (Biolegend). Cells were processed for flow cytometry by Attune NxT and analyzed by FlowJo 10.3. Viability gating strategy included double singlet exclusion by FSC height and FSC width followed by cell type surface marker then viability gate. CD11c DCs were identified as lineage negative (CD3, CD19, CD14, CD16 and CD56) HLADR^+ CD11c^+. Percent viable cells were tabulated using GraphPad Prism 8.
Dendritic cells (DCs) are antigen-presenting cells (also known as accessory cells) of the mammalian immune system. They are believed to act as messengers between the innate and the adaptive immune systems.

[9] = system: calreticulin on the surface of HL60 cells; assay: Analysis of calreticulin cell-surface expression, HL60; type: cell-based, human; conditions: with increased concentrations of azacitidine, 72 hrs; FIG. 3A
Procedure: as §5, §6

MV4-11 tumor xenografts = assay: Subcutaneous MV4-11 leukemia xenograft model; type: in vivo, mice; conditions: day 26, Drug A 10 mg/kg and aza 5 mg/kg IP three times per week
Procedure: as §2, §3
Mice bearing MV4-11 xenografts were randomized into 4 groups of 9-10 each. One group of mice was given Drug A at 10 mg/kg IP (3 times per week), the second group of mice was given aza at 5 mg/kg IP (three times per week), the third group was given both Drug A and aza (at the doses and administration schedule for each single agent, and the fourth group was given vehicle. […]

[10] = system: HL60-LUC2 acute myeloid leukemic model; assay: Disseminated HL60-LUC2 systemic leukemic model, Drug A and venetoclax; conditions: monotherapy; Drug A 30 mg/kg IP, venetoclax 100 mg/kg oral gavage, Q3D 5 doses; FIG. 8
Procedure: The HL60LUC2 (ATCC) cell line was injected through the tail vein of NOD-SCID female mice at a concentration of 7.5×10^6 cells per in RPMI 1640. Bioluminescence imaging (BLI) acquisition and analysis were performed using the IVIS Spectrum (Perkin Elmer) to monitor tumor growth. Firefly D-luciferin (Regis Technologies) was diluted to 15 mg/ml stock in phosphate-buffered saline and filtered before use. Groups of mice were placed in the specimen chamber and injected with 200 μl of D-luciferin intraperitoneally (IP). BLI whole-body signal was acquired at approximately 10 minutes post injection. BLI flux values were serially monitored twice a week with initial scans acquired three days post inoculation of mice. Living Image Software (Perkin Elmer) was used to quantify BLI average total flux values (photons/second, p/s) following the manual construction of regions of interest over the entire mouse body. […] Drug A-treated mice were dosed by IP injection at 30 mg/kg, five times total at three days apart. Animals were sacrificed when the total flux reached 1E11 or loss in body weight of greater than 20%.
Venetoclax and Drug A therapies were initiated 4 days post engraftment and dosed every 3 days for a total of 5 doses.

[11] = cited from earlier work
[12] = system: BCL-XL-dependent cells, such as platelets; conditions: cited from earlier work
BFL-1 (BCL2A1/A1) = molecular target: T1, BFL-1 (BCL2A1/A1) (Homo sapiens, UniProt Q16548); conditions: selectivity profile; cited from earlier work
T1 sequence (Q16548 1-175): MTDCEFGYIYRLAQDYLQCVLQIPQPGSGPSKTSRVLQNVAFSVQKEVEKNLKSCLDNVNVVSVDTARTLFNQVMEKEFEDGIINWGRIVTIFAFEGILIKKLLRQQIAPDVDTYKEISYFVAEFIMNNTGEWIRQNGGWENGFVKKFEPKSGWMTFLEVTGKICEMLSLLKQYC

BCL-XL = BCL-XL (Homo sapiens, UniProt Q07817); conditions: selectivity profile; cited from earlier work
BCL-XL, sequence (Q07817 whole entry, species assumed): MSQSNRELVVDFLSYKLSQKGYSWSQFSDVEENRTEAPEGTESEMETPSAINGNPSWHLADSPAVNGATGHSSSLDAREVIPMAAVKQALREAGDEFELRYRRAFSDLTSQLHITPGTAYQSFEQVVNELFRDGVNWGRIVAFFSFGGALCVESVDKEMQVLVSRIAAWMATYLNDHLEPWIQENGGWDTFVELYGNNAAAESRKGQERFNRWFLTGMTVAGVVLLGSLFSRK

MCL-1 = MCL-1 (Homo sapiens, UniProt Q07820); conditions: selectivity profile; cited from earlier work
MCL-1, sequence (Q07820 whole entry, species assumed): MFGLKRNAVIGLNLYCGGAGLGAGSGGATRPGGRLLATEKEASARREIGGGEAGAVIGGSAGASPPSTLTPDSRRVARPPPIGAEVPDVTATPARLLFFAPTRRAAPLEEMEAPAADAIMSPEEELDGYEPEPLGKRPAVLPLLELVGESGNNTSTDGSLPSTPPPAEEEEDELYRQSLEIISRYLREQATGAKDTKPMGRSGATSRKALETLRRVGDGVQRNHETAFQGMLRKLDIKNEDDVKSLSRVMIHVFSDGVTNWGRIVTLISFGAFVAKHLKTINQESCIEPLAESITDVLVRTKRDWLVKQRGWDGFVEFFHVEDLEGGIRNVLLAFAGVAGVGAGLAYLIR

SMILES: Nc1ncn([C@@H]2O[C@H](CO)[C@@H](O)[C@H]2O)c(=O)n1 [azacitidine, 4-amino-1-[(2R,3R,4S,5R)-3,4-dihydroxy-5-(hydroxymethyl)oxolan-2-yl]-1,3,5-triazin-2-one]
- expression of the anti-phagocytic signal CD47 in primary AML blasts [1]: increase
- % tumor growth inhibition (TGI) [2]: 33%
- macrophage-mediated phagocytosis of HL60 cells (HL60 cells): stimulated macrophage-mediated phagocytosis of HL60 cells slightly
- expression of the anti-phagocytic signal CD47 in the MV411 AML cell line [3]: increase
- tumor growth ([4]; 14 doses, Drug A 30 mg/kg, azacitidine 5 mg/kg, FIG. 5C): moderate tumor growth inhibition
- Day by which all mice succumbed ([4]; second set of experiments, single agent, Q3D 14 doses, FIG. 5D): ~85 days
- expression of the pro-phagocytic signal calreticulin in the MV411 AML cell line [5]: increase
- expression of calreticulin on the surface of MV4-11 cells ([5]; with increased concentrations of azacitidine, 72 hrs, FIG. 3A): increased
- expression of the pro-phagocytic signal calreticulin in primary AML blasts [6]: increase
- expression of calreticulin on the surface of OCI-AML3 cells [7]: increased
- HL60 tumor growth (HL60 tumor xenografts; day 20, compared to vehicle control, FIG. 4A): minimally inhibited
- % tumor growth inhibition (TGI) (HL60 tumor xenografts; day 20, HL60, Drug A 10 mg/kg IP Q3D 6 doses, aza 5 mg/kg IP Q3D 5 doses): 42%
- cytotoxicity at 1.25 pM [8]: ~40%
- expression of calreticulin on the surface of HL60 cells [9]: increased
- % tumor growth inhibition (TGI) (MV4-11 tumor xenografts): 49%

SMILES: CC1(C)CCC(CN2CCN(c3ccc(C(=O)NS(=O)(=O)c4ccc(NCC5CCOCC5)c([N+](=O)[O-])c4)c(Oc4cnc5[nH]ccc5c4)c3)CC2)=C(c2ccc(Cl)cc2)C1 [venetoclax, 4-(4-{[2-(4-chlorophenyl)-4,4dimethylcyclohex-1-en-1-yl]methyl}piperazin-1-yl)-N-({3-nitro-4-[(tetrahydro-2H-pyran-4ylmethyl)amino]phenyl}sulfonyl)-2-(1H-pyrrolo[2,3-b]pyridin-5-yloxy)benzamide]
- expression of the anti-phagocytic signal CD47 in primary AML blasts [1]: increase
- expression of the anti-phagocytic signal CD47 in the MV411 AML cell line [3]: increase
- expression of the pro-phagocytic signal calreticulin in the MV411 AML cell line [5]: increase
- expression of the pro-phagocytic signal calreticulin in primary AML blasts [6]: increase
- tumor growth [10]: moderate tumor growth inhibition
- aqueous solubility [11]: very low

SMILES: O=C(c1cc(-c2cc3c(cc2C(=O)N2Cc4ccccc4C[C@H]2CN2CCOCC2)OCO3)n2c1CCCC2)N(c1ccccc1)c1ccc(O)cc1 [Drug S55746, (S)—N-(4-hydroxyphenyl)-3-(6-(3-(morpholinomethyl)-1,2,3,4-tetrahydroisoquinoline-2-carbonyl)benzo[d][1,3]dioxol-5-yl)-N-phenyl-5,6,7,8-tetrahydroindolizine-1-carboxamide]
- cytotoxic activity on BCL-XL-dependent cells, such as platelets [12]: no cytotoxic activity
- binding to BFL-1 (BCL2A1/A1) (BFL-1 (BCL2A1/A1)): no significant binding
- affinity for BCL-XL (BCL-XL): poor affinity
- binding to MCL-1 (MCL-1): no significant binding
